Laboratory results: US20050182129A1, “Hair growth tonic” (priority 2002, published 2005)
“Also recorded” adds a separate entry of the source.

Legend:
WNT-5A mRNA [1] = experiment: Decrease in WNT-5A mRNA in monkey skin organ culture (RT-PCR), Test Example 6; type: cell-based, Cynomolgus monkey (Macaca fascicularis); details: 40-cycle PCR, hair follicles, 11th day of culturing, FIG. 4
Procedure: (§1) The dorsal skin of a Cynomolgus monkey (Macaca fascicularis) (male, 6 years old) was collected and divided into pieces (5 mm×8 mm) under a stereoscopic microscope. Then each skin tissue piece was cultured in William's Medium E (Invitrogen) to which no compound was added or Compound 7 or Compound 3 was added and which contained 10 μg/ml insulin (Sigma) and 10 ng/ml hydrocortisone (Kurabo).
On the 11th day of the culturing, hair follicles were separated from each skin tissue piece and total RNAs were extracted by using TRIzol reagent (Invitrogen). Using 200 ng portions of the total RNAs, 0.4 μM portions of primers specific to WNT-5A or glyceraldehyde3-phosphate dehydrogenase (GAPDH) [WNT-5A sense: AATGTCTTCCAAGTTCTTCCTAGTGGC (SEQ ID NO-8), WNT-5A antisense: GATGTCGGAATTGATACTGGCA (SEQ ID NO:9), GAPDH sense: ACCACAGTCC ATGCCATCAC (SEQ ID NO:10) and GAPDH antisense: TCCACCACCC TGTTGCTGTA (SEQ ID NO:11)] and SUPERSCRIPT One-Step RT-PCT with PLATINUM Taq (Invitrogen), RT-PCR was cared out in accordance with the protocol attached to SUPERSCRIPT One-Step RT-PCT with PLATINUM Taq. In brief, first strand synthesis was carried out at 50° C. for 30 minutes in a reaction system of 25 μl in total volume in accordance with the protocol attached to SUPERSCRIPT One-Step RT-PCT with PLATINUM Taq. […]

[2] = system: hair follicles in monkey skin organ culture; experiment: Enlargement in hair bulb diameter in monkey skin organ culture, Test Example 8; type: cell-based, Cynomolgus monkey (Macaca fascicularis); details: culturing for 30 days, FIGS. 6 and 7
Procedure: as §1, with “μg/ml of” for “μg/ml”, “ng/ml of” for “ng/ml”
On the 30th day of the culturing, all follicles contained in each skin tissue piece were separated and the diameter of bulbs was measured under a stereoscopic microscope.
FIGS. 6 and 7 show the results. In these figures, each numerical value means mean±S.E. of bulb diameters of all follicles contained in each skin tissue piece. To compare the control group with the test groups, Student's t-test was employed: • *:P<0.05.

[3] = system: Human dermal papilla cells; experiment: Dermal papilla cell growth promoting activity (WST-1, spheroid culture), Test Example 5; type: cell-based; details: for activity at 1 µM / activity at 4 µM / activity at 16 µM: Homo sapiens, Human dermal papilla cell, 72 hours, average of 3 wells, read-out: ΔO.D. 450 nm/620 nm (% of control)
Procedure: (§2) Human dermal papilla cells, which were purchased from Toyobo, were cultured in MEM (Invitrogen) containing 12% FBS.
The dermal papilla cells in passage 5 were sowed in a 96-well plate for spheroid culture to give a density of 1.5×10^4 cells/well and cultured overnight. Then, the medium was replaced by a medium to which no compound was added or a medium containing the compound and the culture was continued for additional 72 hours. After the completion of the culture, cells were counted by using a Cell Counting Kit (Wako Pure Chemicals). Five hours before the completion of the culture, WST-1 reagent at 1/10 amount per medium was added to each medium and then the optical density (O.D. 450 nm/620 nm) of the medium was measured at the completion of the culture. A positive correlation was observed between the cell number and optical density within the range of 0.25 to 4×10^4 cells/well.
In this table, each numerical value means an average of 6 wells (control group) or 3 wells (test groups). To compare the control group to the test groups, Student's t-test was employed: • *:P<0.05, **:P<0.01, ***:P<0.001.

GAPDH mRNA = GAPDH mRNA amount (QuantiGene bDNA method), Test Example 4; type: cell-based; details: Human dermal papilla cell; human dermal papilla cells, 24 hours, concentration at which the mRNA amount is halved, average of 2 wells
Procedure: as §2
(§3) The dermal papilla cells in passage 5 were sowed in a 96-well plate to give a density of 1×10^4 cells/well and cultured overnight. Then, the medium was replaced by a medium to which no compound was added or a medium containing the compounds and the culture was continued for additional 24 hours. After the completion of the culture, WNT-5A or GAPDH mRNA amount was measured by using QuantiGene High Volume Kit (Bayer Medical) by the branched DNA (bDNA) signal amplification method (Drug Metabolism and Disposition, 28(5), 608-616 (2000)). In accordance with the protocol attached to QuantiGene High Volume Kit, cells were lysed by using Lysis Mixture and the lysis solution was added to capture plate. Next, a set of probes specific to WNT-5A or GPDH was added and allowed to react at 53° C. for 20 hours. After washing the plate by using 0.1×SSC containing 0.03% lauryl sulfate, an amplification probe comprising bDNA was added and allowed to react at 46° C. for 1 hour. After washing the plate, a labeling probe labeled with alkaline phosphatase was added and allowed to react at 46° C. for 1 hour. After washing the plate, a substrate Lumi-Phos Plus was added and allowed to react at 46° C. for 30 minutes. Then, the luminescence was measured by using WALLAC 1420ARVOsx.
As GAPDH-specific probe set, use was made of bDNA probe set for human GAPDH (XenoTech LLC, B0960).
(§4) The amounts of WNT-5A and GAPDH mRNAs are expressed in relative values (%) to the control case of adding of no compound and the concentration of a compound at which the mRNA amount is halved (IC50) is calculated as an index of WNT-5A mRNA decreasing activity of the corresponding compound.

WNT-5A mRNA [4] = experiment: Activity of decreasing WNT-5A mRNA amount (QuantiGene bDNA method), Test Example 4; type: cell-based; details: Homo sapiens, Human dermal papilla cell, 24 h, human dermal papilla cells, concentration at which the mRNA amount is halved, average of 2 wells
Procedure: as §2, §3
The WNT-5A-specific probe set was designed based on the sequence of the coding region of human WNT-5A mRNA. As capture extenders (CEs), 10 probes (SEQ ID NOs:12 to 21) were used; as label extenders (LEs), 31 probes (SEQ ID NOs:22 to 52) were employed; and as blockers, […] (SEQ ID NOs:53 to 60) were employed.
as §4

[5] = system: stumptailed macaque suffering from alopecia; experiment: Hair growth test on stumptailed macaque, Test Example 9; type: in vivo, stumptailed macaque (Macaca arctoides); details: lotion containing 0.3% compound
Procedure: To the forehead of a stumptailed macaque (Macaca arctoides) (male, 14 years old) suffering from alopecia, 1 mL of a lotion containing 0.3% Compound 7 was applied once a day 5 times per week for 6 months. Before the initiation of the application, the alopecia site in the forehead was marked by tattoo. The skin part including the tattoo was photographed before the initiation of the application and after applying for 6 months.

| IC50 (GAPDH mRNA) [µM] | IC50 (WNT-5A mRNA [4]) [µM] | Structure (SMILES) | amplified WNT-5A cDNA fragment (WNT-5A mRNA [1]) | average bulb diameter of the follicles vs control [2] | activity at 1 µM [3] [%] | activity at 4 µM [3] [%] | activity at 16 µM [3] [%] | alopecia in the forehead ([5]; 1 mL once a day 5 times per week for 6 months, FIG. 8) | thick terminal hairs ([5]; after applying for 6 months) | vellus hairs ([5]; after applying for 6 months) | growth of dermal papilla cells ([3]; no concentration stated) |
| --- | --- | --- | --- | --- | --- | --- | --- | --- | --- | --- | --- |
| 58 | 3.16 | C[C@@H]1C[C@@H]2O[C@H]2CC/C=C/C(=O)Cc2c(Cl)c(O)cc(O)c2C(=O)O1 [Compound 3] | remarkably decreased | significantly higher; also recorded: enlarges the hair bulb diameter | 92.9 ± 1.6 | 92.9 ± 9.9 | 244 ± 33.4 |  |  |  |  |
| > 120 | 4.07 | C[C@@H]1C[C@@H]2O[C@H]2CC/C=C/[C@H](O)Cc2c(Cl)c(O)cc(O)c2C(=O)O1 [Compound 7] | remarkably decreased | enlarges the hair bulb diameter; also recorded: significantly higher | 82.6 ± 3.9 | 170 ± 10.4 | 195 ± 12.7 | clearly ameliorated | increased | decreased | excellent effect of promoting the growth |
